Measured values as given in article PMC13065040 (PLOS One, 2026).

Biological target: T1, MMP-2 (Homo sapiens, UniProt P08253)
T1 construct: ProSpec Bio; Antibodies-Online; Elabscience; Abcam ENZ-769; ABIN7400042; PKSH033450
T1 sequence (P08253 110-660): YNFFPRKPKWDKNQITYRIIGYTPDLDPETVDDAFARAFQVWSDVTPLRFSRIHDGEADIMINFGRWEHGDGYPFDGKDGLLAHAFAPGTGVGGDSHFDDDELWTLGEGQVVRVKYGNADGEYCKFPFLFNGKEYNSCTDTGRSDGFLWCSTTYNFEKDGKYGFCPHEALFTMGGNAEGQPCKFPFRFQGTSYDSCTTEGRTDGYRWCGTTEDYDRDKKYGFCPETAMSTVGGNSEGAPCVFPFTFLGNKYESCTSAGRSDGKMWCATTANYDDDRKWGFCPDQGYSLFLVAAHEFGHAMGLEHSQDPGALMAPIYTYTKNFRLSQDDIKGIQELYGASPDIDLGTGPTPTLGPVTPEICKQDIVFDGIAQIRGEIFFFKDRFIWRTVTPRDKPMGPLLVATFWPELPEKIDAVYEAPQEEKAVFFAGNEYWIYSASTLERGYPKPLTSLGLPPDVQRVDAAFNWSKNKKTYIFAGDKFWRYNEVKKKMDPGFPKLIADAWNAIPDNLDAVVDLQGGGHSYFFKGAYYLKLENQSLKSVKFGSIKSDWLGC
Experiment: Surface plasmon resonance (SPR), immobilized MMP-2
Format: binding
Conditions: NTA chip, peptides 500 µM to 3.90 µM, pH 7.4
Experimental: Surface plasmon resonance (SPR) reagents, plates, and the NTA chip were purchased from GE Healthcare Life Sciences, now Cytiva (Marlborough, MA, USA). Measurements were performed using the Biacore 8000 SPR System (Marlborough, MA. USA). The running buffer used for protein immobilization and peptide binding consisted of 20 mM Tris, 150 mM NaCl, […] and 0.0005% Tween-20, adjusted to pH 7.4. MMP-2 and NRP-1 were immobilized onto the NTA chip at 15 nM and 25 nM concentration, respectively. Peptides were injected over the immobilized proteins using two-fold serial dilutions from 500 µM to 3.90 µM. Three experiments with four replicates of each were performed. The SPR response curves generated from the Biacore Insight Evaluation Software were fitted to a steady-state affinity model to obtain an equilibrium dissociation constant (KD) for each peptide — protein interaction.

## Chlorotoxin [Ctx]
  binding to MMP-2 by SPR: did not bind
